Experiments:
[1] = test system: peripheral blood mononuclear cells of patients suffering from rheumatoid arthritis; assay: TNF-α in PBMC of rheumatoid arthritis patients; format: cell-based, human; conditions: PBMC derived from rheumatoid arthritis patients (FIG. 9)
Procedure: Approximately 8 mL of blood was collected from untreated rheumatoid arthritis patients.
Peripheral blood mononuclear cells (PBMCs) were isolated from the whole blood derived from 6 rheumatoid arthritis patients using the lymphocyte separation medium, and the cells were seeded in a 96-well round-bottom plate at a density of 1×10^6 cells/mL immediately after the isolation (cultured in RPMI 1640 (0.25 mL/well)).
Afterwards, cells were treated with 0, 10, 20, 40 and 80 μM Compound 24, Compound 10 was used as a negative control, and cells were placed in a cell incubator (37° C., 5% CO2) for incubation.
After 24 hours, the resultant was centrifuged at 4,000 rpm/minute for 10 minutes, and then the supernatant was collected, frozen to −80° C. and used for the determination of TNF-α. Quantification was conducted using a human TNF ELISA Kit.

[2] = test system: R848-induced signaling pathway in human peripheral blood mononuclear cells; assay: ELISA of TNF-α in R848-treated human peripheral blood mononuclear cells; format: cell-based; conditions: human peripheral blood mononuclear cells (FIG. 8)
Procedure: After 48 hours, suspending cells would adhere onto the surface of the 12-well plate, non-adhered cells and the medium were aspirated, and cells were washed with sterile […] buffer (3×1 mL). RPMI medium was added (1 mL/well), and R848 (1 μg/mL) and various concentrations of Compound 24 or Compound 10 (as a negative control) were further added to treat cells. Or, the same amount of peripheral blood mononuclear cells derived from healthy human were used instead of THP-1 cells for subsequent experiments.
After 24 hours, the supernatant of the medium was collected and stored in a freezer at −80° C. Cells were washed with PBS (3×1 mL), the 12-well plate was placed on ice, and then 400 μL of lysis buffer (containing protease inhibitor) was added to each well, during which the cells were pipetted every five minutes. After 20 minutes, the mixture was transferred to the corresponding 1.5-mL tube and centrifuged at 13.2K rpm and 4° C. for 20 minutes. 350 μL of the supernatant was collected into a new centrifuge tube and frozen at −80° C.
Cytokines interleukin-1β(IL-1β), interleukin-6 (IL-6) and tumor necrosis factor (TNF-α) were quantified by enzyme-linked immunosorbent assay (ELISA) according to the instructions of the kit provided by the manufacturer.

OCCCc1nnc(S)n1-c1ccc(Cl)cc1Cl [Compound 10, 3-(4-(2,4-dichlorophenyl)-5-mercapto-4H-1,2,4-triazole-3-yl)propan-1-ol]
inhibitory effect on inflammatory factor TNF-α [1]: did not show such effect
inhibitory effect on inflammatory factor TNF-α [2]: did not exert inhibitory effect
